Results published in ChEMBL document CHEMBL1201861, “Genomics of Drug Sensitity in Cancer screening data, Wellcome Trust Sanger Institute”.

Assays:
MV4-11 = test: cells; type: functional, cell-based, MV-4-11; conditions: Homo sapiens;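 also: cell viability readout measuring growth inhibition of human MV-4-11 cells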
Description: SANGER: Inhibition of human MV-4-11 cell growth in a cell viability assay.

NCI-H187 = test: cells; type: functional, cell-based; conditions: Homo sapiens;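 also: growth inhibition of NCI-H187 cells, read out as cell viability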
Description: SANGER: Inhibition of human NCI-H187 cell growth in a cell viability assay.

SK-MM-2 = test: cells; type: functional, cell-based; conditions: Homo sapiens;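 also: growth inhibition of human SK-MM-2 cells, read out with a cell viability assay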
Description: SANGER: Inhibition of human SK-MM-2 cell growth in a cell viability assay.

HEL = test: cells; type: functional, cell-based, Homo sapiens; conditions: Homo sapiens, HEL;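 also: growth inhibition of HEL cells, read out with a cell viability assay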
Description: SANGER: Inhibition of human HEL cell growth in a cell viability assay.

C32 = test: cells; type: functional, cell-based, Homo sapiens; conditions: Homo sapiens, C32;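 also: cell viability assay, with IC50 reflecting inhibition of C32 cell growth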
Description: SANGER: Inhibition of human C32 cell growth in a cell viability assay.

ES1 = test: cells; type: functional, cell-based, Homo sapiens; conditions: Homo sapiens, ES1;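 also: growth inhibition of ES1 cells, read out with a cell viability assay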
Description: SANGER: Inhibition of human ES1 cell growth in a cell viability assay.

EM-2 = test: cells; type: functional, cell-based; conditions: Homo sapiens;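 also: growth inhibition of EM-2 cells, read out with a cell viability assay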
Description: SANGER: Inhibition of human EM-2 cell growth in a cell viability assay.

Calu-6 = test: cells; type: functional, cell-based, Homo sapiens; conditions: Homo sapiens, Calu-6;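 also: growth of human Calu-6 cells, read out by a cell viability assay, IC50 marking inhibition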
Description: SANGER: Inhibition of human Calu-6 cell growth in a cell viability assay.

NCI-H719 = test: cells; type: functional, cell-based; conditions: Homo sapiens;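 also: growth inhibition of the cultured cell line, read out with a viability assay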
Description: SANGER: Inhibition of human NCI-H719 cell growth in a cell viability assay.

SUP-T1 = test: cells; type: functional, cell-based; conditions: Homo sapiens;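 also: growth inhibition of human SUP-T1 cells, read out as cell viability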
Description: SANGER: Inhibition of human SUP-T1 cell growth in a cell viability assay.

NCI-H889 = test: cells; type: functional, cell-based; conditions: Homo sapiens;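 also: cell growth inhibition of the cell line, read out with a viability assay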
Description: SANGER: Inhibition of human NCI-H889 cell growth in a cell viability assay.

IMR-5 = test: cells; type: functional, cell-based; conditions: Homo sapiens;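 also: growth inhibition of human IMR-5 cells, read out with a cell viability assay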
Description: SANGER: Inhibition of human IMR-5 cell growth in a cell viability assay.

EFM-19 = test: cells; type: functional, cell-based, Homo sapiens; conditions: Homo sapiens, EFM-19;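 also: growth inhibition of human EFM-19 cells, measured in a cell viability assay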
Description: SANGER: Inhibition of human EFM-19 cell growth in a cell viability assay.

EVSA-T = test: cells; type: functional, cell-based, Homo sapiens; conditions: Homo sapiens, EVSA-T;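 also: growth inhibition of EVSA-T cells, read out with a cell viability assay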
Description: SANGER: Inhibition of human EVSA-T cell growth in a cell viability assay.

DMS-153 = test: cells; type: functional, cell-based; conditions: Homo sapiens
Description: SANGER: Inhibition of human DMS-153 cell growth in a cell viability assay.

KMS-12-PE = test: cells; type: functional, cell-based; conditions: Homo sapiens;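 also: growth inhibition of human KMS-12-PE cells, measured with a cell viability assay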
Description: SANGER: Inhibition of human KMS-12-PE cell growth in a cell viability assay.

NB5 = test: cells; type: functional, cell-based, Homo sapiens; conditions: Homo sapiens, NB5;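 also: growth inhibition of NB5 cells, read out as cell viability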
Description: SANGER: Inhibition of human NB5 cell growth in a cell viability assay.

NCI-H2171 = test: cells; type: functional, cell-based; conditions: Homo sapiens;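 also: growth inhibition of human NCI-H2171 cells, read out by a cell viability assay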
Description: SANGER: Inhibition of human NCI-H2171 cell growth in a cell viability assay.

EHEB = test: cells; type: functional, cell-based; conditions: Homo sapiens;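 also: growth inhibition of human EHEB cells, read out with a cell viability assay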
Description: SANGER: Inhibition of human EHEB cell growth in a cell viability assay.

NB6 = test: cells; type: functional, cell-based, Homo sapiens; conditions: Homo sapiens, NB6;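 also: growth inhibition of NB6 cells, read out by a cell viability assay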
Description: SANGER: Inhibition of human NB6 cell growth in a cell viability assay.

NCI-H2081 = test: cells; type: functional, cell-based; conditions: Homo sapiens;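 also: growth inhibition of human NCI-H2081 cells, read out with a cell viability assay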
Description: SANGER: Inhibition of human NCI-H2081 cell growth in a cell viability assay.

RPMI-7951 = test: cells; type: functional, cell-based, Homo sapiens; conditions: Homo sapiens, RPMI-7951
Description: SANGER: Inhibition of human RPMI-7951 cell growth in a cell viability assay.

BL-70 = test: SANGER: Inhibition of human BL-70 cell growth in a cell viability assay.; type: functional, cell-based
EB-3 = test: cells; type: functional, cell-based; conditions: Homo sapiens;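 also: human EB-3 cells, growth inhibition read out via a cell viability assay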
Description: SANGER: Inhibition of human EB-3 cell growth in a cell viability assay.

DMS-273 = test: cells; type: functional, cell-based, Homo sapiens; conditions: Homo sapiens, DMS-273
Description: SANGER: Inhibition of human DMS-273 cell growth in a cell viability assay.

REH = test: cells; type: functional, cell-based; conditions: Homo sapiens;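 also: growth inhibition of REH cells determined with a cell viability read-out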
Description: SANGER: Inhibition of human REH cell growth in a cell viability assay.

LB996-RCC = test: cells; type: functional, cell-based; conditions: Homo sapiens
Description: SANGER: Inhibition of human LB996-RCC cell growth in a cell viability assay.

NALM-6 = test: cells; type: functional, cell-based; conditions: Homo sapiens;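 also: growth inhibition of NALM-6 cells, read out with a cell viability assay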
Description: SANGER: Inhibition of human NALM-6 cell growth in a cell viability assay.

Detroit 562 = test: cells; type: functional, cell-based, Homo sapiens; conditions: Homo sapiens, Detroit 562;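 also: growth inhibition of human Detroit 562 cells, read out by a cell viability assay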
HSC-2 = test: cells; type: functional, cell-based, Homo sapiens; conditions: Homo sapiens, HSC-2;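 also: growth inhibition of human HSC-2 cells, read out by a cell viability assay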
Description: SANGER: Inhibition of human HSC-2 cell growth in a cell viability assay.

NCI-H1882 = test: cells; type: functional, cell-based; conditions: Homo sapiens;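 also: growth inhibition of the cell line, determined with a viability assay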
Description: SANGER: Inhibition of human NCI-H1882 cell growth in a cell viability assay.

YT = test: cells; type: functional, cell-based; conditions: Homo sapiens
Description: SANGER: Inhibition of human YT cell growth in a cell viability assay.

NCI-H460 = test: cells; type: functional, cell-based, Homo sapiens; conditions: Homo sapiens, NCI-H460;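 also: cell viability assay scoring growth inhibition of human NCI-H460 cells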
Description: SANGER: Inhibition of human NCI-H460 cell growth in a cell viability assay.

CP50-MEL-B = test: cells; type: functional, cell-based, Homo sapiens; conditions: Homo sapiens, CP50-MEL-B;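 also: growth inhibition of the human cell line, measured with a cell viability read-out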
Description: SANGER: Inhibition of human CP50-MEL-B cell growth in a cell viability assay.

NCI-H1694 = test: cells; type: functional, cell-based; conditions: Homo sapiens;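 also: cell viability assay measuring inhibition of growth in human NCI-H1694 cells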
Description: SANGER: Inhibition of human NCI-H1694 cell growth in a cell viability assay.

BOKU = test: cells; type: functional, cell-based; conditions: Homo sapiens;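 also: growth inhibition of the human BOKU cell line, read out by a cell viability assay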
Description: SANGER: Inhibition of human BOKU cell growth in a cell viability assay.

NCI-H716 = test: cells; type: functional, cell-based; conditions: Homo sapiens;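 also: growth inhibition of human NCI-H716 cells, measured by a cell viability assay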
Description: SANGER: Inhibition of human NCI-H716 cell growth in a cell viability assay.

Raji = test: cells; type: functional, cell-based; conditions: Homo sapiens;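 also: cell viability assay measuring inhibition of Raji cell growth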
Description: SANGER: Inhibition of human Raji cell growth in a cell viability assay.

J-RT3-T3-5 = test: cells; type: functional, cell-based; conditions: Homo sapiens;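 also: cell viability assay measuring growth inhibition of human J-RT3-T3-5 cells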
Description: SANGER: Inhibition of human J-RT3-T3-5 cell growth in a cell viability assay.

ST486 = test: SANGER: Inhibition of human ST486 cell growth in a cell viability assay.; type: functional, cell-based
NCI-H522 = test: cells; type: functional, cell-based, Homo sapiens; conditions: Homo sapiens, NCI-H522;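 also: cell viability assay measuring growth inhibition of human NCI-H522 cells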
Description: SANGER: Inhibition of human NCI-H522 cell growth in a cell viability assay.

CCRF-CEM = test: cells; type: functional, cell-based; conditions: Homo sapiens;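 also: inhibition of CCRF-CEM cell growth, measured by a cell viability assay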
Description: SANGER: Inhibition of human CCRF-CEM cell growth in a cell viability assay.

SF-539 = test: cells; type: functional, cell-based, Homo sapiens; conditions: Homo sapiens, SF-539;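 also: Read-out is a cell viability assay, with IC50 reflecting inhibition of cell growth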
Description: SANGER: Inhibition of human SF539 cell growth in a cell viability assay.

HCC2157 = test: cells; type: functional, cell-based; conditions: Homo sapiens;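 also: growth inhibition of the cancer cell line, read out as cell viability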
Description: SANGER: Inhibition of human HCC2157 cell growth in a cell viability assay.

G-361 = test: cells; type: functional, cell-based, Homo sapiens; conditions: Homo sapiens, G-361
GDM-1 = test: cells; type: functional, cell-based; conditions: Homo sapiens;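 also: cell viability readout used to measure growth inhibition of human GDM-1 cells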
Description: SANGER: Inhibition of human GDM-1 cell growth in a cell viability assay.

LC-1F = test: cells; type: functional, cell-based; conditions: Homo sapiens;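 also: growth inhibition of human LC-1F cells, read out with a cell viability assay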
Description: SANGER: Inhibition of human LC-1F cell growth in a cell viability assay.

CPC-N = test: cells; type: functional, cell-based; conditions: Homo sapiens;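 also: growth inhibition of CPC-N cells, with a cell viability assay as the readout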
Description: SANGER: Inhibition of human CPC-N cell growth in a cell viability assay.

PF-382 = test: cells; type: functional, cell-based; conditions: Homo sapiens
Description: SANGER: Inhibition of human PF-382 cell growth in a cell viability assay.

CHP-126 = test: cells; type: functional, cell-based; conditions: Homo sapiens
Description: SANGER: Inhibition of human CHP-126 cell growth in a cell viability assay.

SIMA = test: cells; type: functional, cell-based, Homo sapiens; conditions: Homo sapiens, SIMA;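 also: growth inhibition of SIMA cells, measured with a cell viability readout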
Description: SANGER: Inhibition of human SIMA cell growth in a cell viability assay.

LB831-BLC = test: cells; type: functional, cell-based, Homo sapiens; conditions: Homo sapiens, LB831-BLC;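 also: growth inhibition of LB831-BLC cells, read out with a cell viability assay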
Description: SANGER: Inhibition of human LB831-BLC cell growth in a cell viability assay.

OPM-2 = test: cells; type: functional, cell-based; conditions: Homo sapiens;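 also: growth of OPM-2 cells measured with a viability assay, IC50 for suppression of proliferation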
Description: SANGER: Inhibition of human OPM-2 cell growth in a cell viability assay.

SMILES: C[C@]1(O)C[C@@H](c2nc(-c3ccc4ccc(-c5ccccc5)nc4c3)c3c(N)nccn32)C1 [LINSITINIB]
- IC50 (MV4-11): > 2560 nM
- IC50 (NCI-H187): > 2560 nM
- IC50 (SK-MM-2): 655 nM
- IC50 (HEL): > 2560 nM
- IC50 (C32): > 2560 nM
- IC50 (ES1): 107 nM
- IC50 (EM-2): > 2560 nM
- IC50 (Calu-6): > 2560 nM
- IC50 (NCI-H719): > 2560 nM
- IC50 (SUP-T1): > 2560 nM
- IC50 (NCI-H889): > 2560 nM
- IC50 (IMR-5): > 2560 nM
- IC50 (EFM-19): > 2560 nM
- IC50 (EVSA-T): > 2560 nM
- IC50 (DMS-153): > 2560 nM
- IC50 (KMS-12-PE): > 2560 nM
- IC50 (NB5): > 2560 nM
- IC50 (NCI-H2171): 1780 nM
- IC50 (EHEB): > 2560 nM
- IC50 (NB6): > 2560 nM
- IC50 (NCI-H2081): > 2560 nM
- IC50 (RPMI-7951): > 2560 nM
- IC50 (BL-70): > 2560 nM
- IC50 (EB-3): > 2560 nM
- IC50 (DMS-273): > 2560 nM
- IC50 (REH): > 2560 nM
- IC50 (LB996-RCC): > 2560 nM
- IC50 (NALM-6): > 2560 nM
- IC50 (Detroit 562): > 2560 nM
- IC50 (HSC-2): > 2560 nM
- IC50 (NCI-H1882): > 2560 nM
- IC50 (YT): > 2560 nM
- IC50 (NCI-H460): > 2560 nM
- IC50 (CP50-MEL-B): > 2560 nM
- IC50 (NCI-H1694): > 2560 nM
- IC50 (BOKU): > 2560 nM
- IC50 (NCI-H716): > 2560 nM
- IC50 (Raji): > 2560 nM
- IC50 (J-RT3-T3-5): > 2560 nM
- IC50 (ST486): > 2560 nM
- IC50 (NCI-H522): > 2560 nM
- IC50 (CCRF-CEM): > 2560 nM
- IC50 (SF-539): > 2560 nM
- IC50 (HCC2157): > 2560 nM
- IC50 (G-361): > 2560 nM
- IC50 (GDM-1): 137 nM
- IC50 (LC-1F): > 2560 nM
- IC50 (CPC-N): > 2560 nM
- IC50 (PF-382): > 2560 nM
- IC50 (CHP-126): > 2560 nM
- IC50 (SIMA): 1070 nM
- IC50 (LB831-BLC): > 2560 nM
- IC50 (OPM-2): 2100 nM

SMILES: C=CCc1cccc(/C=N/NC(=O)CN2CCN(Cc3ccccc3)CC2)c1O [PAC-1]
- IC50 (MV4-11): > 2560 nM
- IC50 (NCI-H187): > 2560 nM
- IC50 (SK-MM-2): > 2560 nM
- IC50 (HEL): > 2560 nM
- IC50 (C32): > 2560 nM
- IC50 (ES1): > 2560 nM
- IC50 (EM-2): > 2560 nM
- IC50 (Calu-6): > 2560 nM
- IC50 (NCI-H719): > 2560 nM
- IC50 (SUP-T1): 1000 nM
- IC50 (NCI-H889): > 2560 nM
- IC50 (IMR-5): > 2560 nM
- IC50 (EFM-19): 1950 nM
- IC50 (EVSA-T): > 2560 nM
- IC50 (DMS-153): > 2560 nM
- IC50 (KMS-12-PE): > 2560 nM
- IC50 (NB5): > 2560 nM
- IC50 (NCI-H2171): > 2560 nM
- IC50 (EHEB): > 2560 nM
- IC50 (NB6): > 2560 nM
- IC50 (NCI-H2081): > 2560 nM
- IC50 (RPMI-7951): > 2560 nM
- IC50 (BL-70): 1970 nM
- IC50 (EB-3): > 2560 nM
- IC50 (DMS-273): > 2560 nM
- IC50 (REH): 944 nM
- IC50 (LB996-RCC): > 2560 nM
- IC50 (NALM-6): 703 nM
- IC50 (Detroit 562): > 2560 nM
- IC50 (HSC-2): > 2560 nM
- IC50 (NCI-H1882): > 2560 nM
- IC50 (YT): > 2560 nM
- IC50 (NCI-H460): > 2560 nM
- IC50 (CP50-MEL-B): > 2560 nM
- IC50 (NCI-H1694): > 2560 nM
- IC50 (BOKU): > 2560 nM
- IC50 (NCI-H716): > 2560 nM
- IC50 (Raji): 2130 nM
- IC50 (J-RT3-T3-5): 1200 nM
- IC50 (ST486): 967 nM
- IC50 (NCI-H522): > 2560 nM
- IC50 (CCRF-CEM): 566 nM
- IC50 (SF-539): > 2560 nM
- IC50 (HCC2157): > 2560 nM
- IC50 (G-361): 1190 nM
- IC50 (GDM-1): > 2560 nM
- IC50 (LC-1F): > 2560 nM
- IC50 (CPC-N): > 2560 nM
- IC50 (PF-382): 1060 nM
- IC50 (CHP-126): 918 nM
- IC50 (SIMA): > 2560 nM
- IC50 (LB831-BLC): > 2560 nM
- IC50 (OPM-2): > 2560 nM

SMILES: Cc1ccc(Nc2nccc(N(C)c3ccc4c(C)n(C)nc4c3)n2)cc1S(N)(=O)=O [PAZOPANIB]
- IC50 (MV4-11): 1350 nM
- IC50 (NCI-H187): > 8000 nM
- IC50 (SK-MM-2): > 8000 nM
- IC50 (HEL): > 8000 nM
- IC50 (C32): > 8000 nM
- IC50 (ES1): > 8000 nM
- IC50 (EM-2): > 8000 nM
- IC50 (Calu-6): > 8000 nM
- IC50 (NCI-H719): > 8000 nM
- IC50 (SUP-T1): > 8000 nM
- IC50 (NCI-H889): > 8000 nM
- IC50 (IMR-5): > 8000 nM
- IC50 (EFM-19): > 8000 nM
- IC50 (EVSA-T): > 8000 nM
- IC50 (DMS-153): > 8000 nM
- IC50 (KMS-12-PE): > 8000 nM
- IC50 (NB5): > 8000 nM
- IC50 (NCI-H2171): > 8000 nM
- IC50 (EHEB): > 8000 nM
- IC50 (NB6): > 8000 nM
- IC50 (NCI-H2081): > 8000 nM
- IC50 (RPMI-7951): > 8000 nM
- IC50 (BL-70): > 8000 nM
- IC50 (EB-3): > 8000 nM
- IC50 (DMS-273): 4960 nM
- IC50 (REH): > 8000 nM
- IC50 (LB996-RCC): > 8000 nM
- IC50 (NALM-6): > 8000 nM
- IC50 (Detroit 562): > 8000 nM
- IC50 (HSC-2): > 8000 nM
- IC50 (NCI-H1882): > 8000 nM
- IC50 (YT): > 8000 nM
- IC50 (NCI-H460): > 8000 nM
- IC50 (CP50-MEL-B): > 8000 nM
- IC50 (NCI-H1694): > 8000 nM
- IC50 (BOKU): > 8000 nM
- IC50 (NCI-H716): 2320 nM
- IC50 (Raji): > 8000 nM
- IC50 (J-RT3-T3-5): > 8000 nM
- IC50 (ST486): > 8000 nM
- IC50 (NCI-H522): > 8000 nM
- IC50 (CCRF-CEM): > 8000 nM
- IC50 (SF-539): > 8000 nM
- IC50 (HCC2157): > 8000 nM
- IC50 (G-361): 3040 nM
- IC50 (GDM-1): 104 nM
- IC50 (LC-1F): > 8000 nM
- IC50 (CPC-N): > 8000 nM
- IC50 (PF-382): > 8000 nM
- IC50 (CHP-126): > 8000 nM
- IC50 (SIMA): > 8000 nM
- IC50 (LB831-BLC): 2550 nM
- IC50 (OPM-2): > 8000 nM
